# Laboratory results taken from US20160244436A1, “NOVEL FUNCTIONALIZED 5-(PHENOXYMETHYL)-1,3-DIOXANE ANALOGS EXHIBITING CYTOCHROME P450 INHIBITION AND THEIR METHOD OF USE” (CORTENDO AB (PUBL), priority 2013, published 2016).
# Columns and labels:
# Type in all cases: cell-based
# recombinant CYP-21 = molecular target: T1, recombinant CYP-21 (Homo sapiens, UniProt P08686); assay: Cyp21 assay: AD293 cells over-expressing recombinant CYP-21, 11-deoxycortisol formation from 17α-OH Progesterone by LC/MS
# T1 construct: expressed in transfected cells; host or cells: AD293
# T1 sequence (P08686 1-495): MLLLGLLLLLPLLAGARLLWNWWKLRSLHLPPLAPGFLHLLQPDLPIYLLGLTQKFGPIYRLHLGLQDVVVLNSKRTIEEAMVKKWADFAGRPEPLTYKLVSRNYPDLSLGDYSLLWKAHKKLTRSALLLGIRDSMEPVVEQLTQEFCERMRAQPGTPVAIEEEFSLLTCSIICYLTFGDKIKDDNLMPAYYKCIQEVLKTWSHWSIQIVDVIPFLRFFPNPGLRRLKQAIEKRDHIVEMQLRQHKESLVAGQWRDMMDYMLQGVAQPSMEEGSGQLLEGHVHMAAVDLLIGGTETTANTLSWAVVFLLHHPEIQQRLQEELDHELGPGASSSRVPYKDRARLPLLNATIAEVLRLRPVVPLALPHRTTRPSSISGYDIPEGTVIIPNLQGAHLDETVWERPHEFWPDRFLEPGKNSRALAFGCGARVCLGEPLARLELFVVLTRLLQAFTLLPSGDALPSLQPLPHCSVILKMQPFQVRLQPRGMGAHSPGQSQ
# Experimental: Cyp21 assay protocol: AD293 cells that stably over-express recombinant CYP-21 were seeded in 96 well plates coated with poly D-lysine (10,000 cell per well) and incubated at 37° C. for 24 hours in Dulbecco's Modified Eagle Medium (DMEM) with Fetal Bovine Serum (FBS) that is stripped of hormones by charcoal treatment. The media is then removed, the cells are washed once with Phosphate buffer saline solution, and 50 μL Dulbecco's Modified Eagle Medium (DMEM) with Fetal Bovine Serum (FBS) that is stripped of hormones by charcoal treatment is added. Compounds of the disclosure are then added to the wells in eight concentration spanning 10 μM to 4.5 nM, and the plates are incubated for an additional 60 minutes at 37° C. 17α-OH Progesterone is then added (1.0 μM) and the plates are incubated for an additional 45 minutes at 37° C. After incubation, 50 uL of the supernatant (medium) is transferred into a fresh plate and 150 uL of an acetonitrile solution containing 200 ng/ml of Telmisartan is added. The sample is mixed and then placed in a centrifuge at 2000 rpm for 5 minutes. 100 uL of the supernatant is transferred into a fresh 96 well deep well plate, 100 uL of 1:1 methanol:water was added, the solution was mixed and then analyzed by LC/MS for the presence of 11-deoxycortisol using an Agilent 1200 RRLC/ABSCIEX API4000 LC-MS or Shimadzu Prominance/ABSCIEX API4000 LC-MS to determine IC5os of the compounds of the disclosure.
# recombinant CYP-17 = molecular target: T2, recombinant CYP-17 (Homo sapiens, UniProt P05093); assay: Cyp17 assay: AD293 cells over-expressing recombinant CYP-17, 3H-acetic acid release from [21-3H] 17α-hydroxyl-Pregnenolone
# T2 construct: expressed in transfected cells; host or cells: AD293
# T2 sequence (P05093 1-508): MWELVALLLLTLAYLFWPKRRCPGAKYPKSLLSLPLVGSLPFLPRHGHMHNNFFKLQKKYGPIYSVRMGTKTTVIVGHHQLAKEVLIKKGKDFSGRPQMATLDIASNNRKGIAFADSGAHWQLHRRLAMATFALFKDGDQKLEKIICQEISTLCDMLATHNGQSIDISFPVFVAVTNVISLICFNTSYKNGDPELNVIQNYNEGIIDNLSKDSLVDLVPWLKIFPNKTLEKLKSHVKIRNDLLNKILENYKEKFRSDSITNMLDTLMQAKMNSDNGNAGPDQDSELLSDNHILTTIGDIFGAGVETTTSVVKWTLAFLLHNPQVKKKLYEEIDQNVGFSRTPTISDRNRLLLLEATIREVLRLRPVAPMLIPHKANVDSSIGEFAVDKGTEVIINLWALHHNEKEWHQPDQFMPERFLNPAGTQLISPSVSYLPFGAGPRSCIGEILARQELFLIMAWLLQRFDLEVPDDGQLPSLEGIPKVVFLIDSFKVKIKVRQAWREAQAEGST
# Experimental: Cyp17 assay protocol: AD293 cells that stably over-express recombinant CYP-17 were seeded in 96 well plates coated with poly D-lysine (15,000 cell per well) and incubated at 37° C. for 24 hours in Dulbecco's Modified Eagle Medium (DMEM) with Fetal Bovine Serum (FBS) that is stripped of hormones by charcoal treatment. The media is then removed, the cells are washed once with Phosphate buffer saline solution, and 50 μL Dulbecco's Modified Eagle Medium (DMEM) with Fetal Bovine Serum (FBS) that is stripped of hormones by charcoal treatment is added. Compounds of the disclosure are then added to the wells in eight concentration spanning 10 μM to 4.5 nM, and the plates are incubated for an additional 60 minutes at 37° C. [21-^3H] 17α-hydroxyl-Pregnenolone is then added (50 nCi per well, 31.25 nM) and the plates are incubated for an additional 4 hours at 37° C. The media is then collected, 200 μL, of chloroform is added, and the mixture is shaken for 1 hour. The aqueous layer is then separated and analyzed for the presence of ^3H-acetic acid using a Perkin Elmer Topcount NXT to determine IC50s of the compounds of the disclosure.
# recombinant CYP-11 = molecular target: T3, recombinant CYP-11 (Homo sapiens, UniProt P15538); assay: Cyp11 assay: AD293 cells over-expressing recombinant CYP-11, cortisol formation from 11-deoxycortisol by LC/MS
# T3 construct: expressed in transfected cells; host or cells: AD293
# T3 sequence (P15538 25-503): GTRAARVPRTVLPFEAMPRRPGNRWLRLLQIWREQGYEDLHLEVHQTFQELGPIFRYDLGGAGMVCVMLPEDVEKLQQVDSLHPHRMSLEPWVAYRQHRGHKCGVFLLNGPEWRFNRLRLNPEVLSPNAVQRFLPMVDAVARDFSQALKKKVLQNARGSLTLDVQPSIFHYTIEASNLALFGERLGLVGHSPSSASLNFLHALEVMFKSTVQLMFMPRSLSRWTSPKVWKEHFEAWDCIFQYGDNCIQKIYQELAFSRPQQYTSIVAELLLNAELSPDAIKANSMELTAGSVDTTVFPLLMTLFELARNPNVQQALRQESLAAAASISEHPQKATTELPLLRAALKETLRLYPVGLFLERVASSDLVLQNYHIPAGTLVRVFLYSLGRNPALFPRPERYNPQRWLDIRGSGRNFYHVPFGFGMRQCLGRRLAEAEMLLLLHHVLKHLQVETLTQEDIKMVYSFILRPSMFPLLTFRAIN
# Experimental: Cyp11 assay protocol: AD293 cells that stably over-express recombinant CYP-11 were seeded in 96 well plates coated with poly D-lysine (15,000 cell per well) and incubated at 37° C. for 24 hours in Dulbecco's Modified Eagle Medium (DMEM) with Fetal Bovine Serum (FBS) that is stripped of hormones by charcoal treatment. The media is then removed, the cells are washed once with Phosphate buffer saline solution, and 50 μL Dulbecco's Modified Eagle Medium (DMEM) with Fetal Bovine Serum (FBS) that is stripped of hormones by charcoal treatment is added. Compounds of the disclosure are then added to the wells in eight concentration spanning 10 μM to 4.5 nM, and the plates are incubated for an additional 60 minutes at 37° C. 11-deoxycortisol is then added (2.0 μM) and the plates are incubated for an additional 12 hours at 37° C. After incubation, 50 uL of the supernatant (medium) is transferred into a fresh plate and 150 uL of an acetonitrile solution containing 200 ng/ml of Telmisartan is added. The sample is mixed and then placed in a centrifuge at 2000 rpm for 5 minutes. 100 uL of the supernatant is transferred into a fresh 96 well deep well plate, 100 uL of 1:1 methanol:water was added, the solution was mixed and then analyzed by LC/MS for the presence of cortisol using an Agilent 1200 RRLC/ABSCIEX API4000 LC-MS or Shimadzu Prominance/ABSCIEX API4000 LC-MS to determine IC5os of the compounds of the disclosure.
SMILES,IC50 (recombinant CYP-21) [nM],IC50 (recombinant CYP-17) [nM],IC50 (recombinant CYP-11) [nM]
CS(=O)(=O)N1CCN(c2ccc(CO[C@H]3CO[C@@](Cn4ccnc4)(c4ccccc4Cl)OC3)cc2)CC1 [Example 500013],2500,1500,–
Clc1ccccc1[C@]1(Cn2ccnc2)OC[C@@H](OCc2ccc(N3CCOCC3)cc2)CO1 [Example 500005],960,260,–
CCS(=O)(=O)N1CCN(c2ccc(CO[C@H]3CO[C@](Cn4ccnc4)(c4ccc(Cl)cc4Cl)OC3)cc2)CC1 [Example 500021],130,9,200
Clc1ccccc1[C@]1(Cn2ccnc2)OC[C@H](OCc2ccc(N3CCOCC3)cc2)CO1 [Example 500006],4760,8000,–
CC(=O)N1CCN(c2ccc(CO[C@H]3CO[C@](Cn4ccnc4)(c4ccccc4Cl)OC3)cc2)CC1 [Example 500003],1480,146,521
CC(=O)N1CCN(c2ccc(CO[C@H]3CO[C@@](Cn4ccnc4)(c4ccccc4Cl)OC3)cc2)CC1 [Example 500004],–,≥ 10000,–
CC(=O)N1CCN(c2ccc(CO[C@H]3CO[C@@](Cn4ccnc4)(c4ccc(Cl)cc4Cl)OC3)cc2)CC1 [Example 500019],–,1100,12
O=S(=O)(c1c[nH]cn1)N1CCN(c2ccc(CO[C@H]3CO[C@](Cn4ccnc4)(c4ccc(Cl)cc4Cl)OC3)cc2)CC1 [Example 500023],426,67,14
O=S(=O)(CCCCl)N1CCN(c2ccc(CO[C@H]3CO[C@](Cn4ccnc4)(c4ccc(Cl)cc4Cl)OC3)cc2)CC1 [Example 500017],1100,106,27
CC(=O)N1CCN(c2ccc(CO[C@H]3CO[C@](Cn4ccnc4)(c4ccc(Cl)cc4Cl)OC3)cc2)CC1 [Example 500015],208,8,12
CS(=O)(=O)N1CCN(c2ccc(CO[C@H]3CO[C@](Cn4ccnc4)(c4ccccc4Cl)OC3)cc2)CC1 [Example 500012],1520,12,100
N#Cc1cccc(S(=O)(=O)N2CCN(c3ccc(CO[C@H]4CO[C@](Cn5ccnc5)(c5ccc(Cl)cc5Cl)OC4)cc3)CC2)c1 [Example 500016],415,75,37
CC(C)S(=O)(=O)N1CCN(c2ccc(CO[C@H]3CO[C@](Cn4ccnc4)(c4ccc(Cl)cc4Cl)OC3)cc2)CC1 [Example 500020],110,11,25
O=S(=O)(c1cccc(OC(F)(F)F)c1)N1CCN(c2ccc(CO[C@H]3CO[C@](Cn4ccnc4)(c4ccc(Cl)cc4Cl)OC3)cc2)CC1 [Example 500022],170,101,13
O=S(=O)(C1CC1)N1CCN(c2ccc(CO[C@H]3CO[C@](Cn4ccnc4)(c4ccc(Cl)cc4Cl)OC3)cc2)CC1 [Example 500018],262,11,6

# Continued, values first:
IC50 (recombinant CYP-21) [nM],IC50 (recombinant CYP-17) [nM],IC50 (recombinant CYP-11) [nM],SMILES
800,2500,–,COCCOC(=O)N1CCN(c2ccc(CO[C@H]3CO[C@@](Cn4ccnc4)(c4ccccc4Cl)OC3)cc2)CC1 [Example 510012]
68,33,23,Clc1ccc([C@]2(Cn3ccnc3)OC[C@@H](OCc3ccc(-c4ccncc4)cc3)CO2)c(Cl)c1 [Example 500024]
2800,40,107,CCOC(=O)CNC(=O)N1CCN(c2ccc(CO[C@H]3CO[C@](Cn4ccnc4)(c4ccccc4Cl)OC3)cc2)CC1 [Example 510018]
391,42,440,Clc1ccccc1[C@]1(Cn2ccnc2)OC[C@@H](OCc2ccc(-c3ccncc3)cc2)CO1 [Example 510017]
273,13,12,O=S(=O)(c1cccnc1)N1CCN(c2ccc(CO[C@H]3CO[C@](Cn4ccnc4)(c4ccc(Cl)cc4Cl)OC3)cc2)CC1 [Example 500025]
800,27,70,CN(C)C(=O)N1CCN(c2ccc(CO[C@H]3CO[C@](Cn4ccnc4)(c4ccccc4Cl)OC3)cc2)CC1 [Example 510013]
–,≥ 10000,5800,CCOC(=O)CNC(=O)N1CCN(c2ccc(CO[C@H]3CO[C@@](Cn4ccnc4)(c4ccccc4Cl)OC3)cc2)CC1 [Example 510019]
570,20,140,COCCOC(=O)N1CCN(c2ccc(CO[C@H]3CO[C@](Cn4ccnc4)(c4ccccc4Cl)OC3)cc2)CC1 [Example 510014]
